Assay results as given in PMC9865587, “Inhibitory Effects of 2-Aminoethoxydiphenyl Borate (2-APB) on Three KV1 Channel Currents” (Molecules, 2023).

Assays:
Test in all cases: cell-based
KV1.4 [1] = molecular target: T1, KV1.4 (Homo sapiens, UniProt P22459, N-TERMINALTRUNCATION(1–61DELETED))
T1 construct: gene KCNA4

KV1.4 [2] = molecular target: T2, KV1.4 (Homo sapiens, UniProt P22459, L554A); conditions: CHO
T2 construct: gene KCNA4

KV1.4 [3] = molecular target: T3, KV1.4 (Homo sapiens, UniProt P22459, V549A); conditions: CHO
T3 construct: gene KCNA4

KV1.3 = molecular target: T4, KV1.3 (Homo sapiens, UniProt P22001)
T4 construct: gene KCNA3

KV1.4 [4] = molecular target: T5, KV1.4 (Homo sapiens, UniProt P22459)
T5 construct: gene KCNA4

KV1.4 [5] = molecular target: T6, KV1.4 (Homo sapiens, UniProt P22459, T551A); conditions: CHO
T6 construct: gene KCNA4

KV1.4 [6] = molecular target: T7, KV1.4 (Homo sapiens, UniProt P22459, A553V); conditions: CHO
T7 construct: gene KCNA4

KV1.4 [7] = molecular target: T8, KV1.4 (Homo sapiens, UniProt P22459, V558A); conditions: CHO
T8 construct: gene KCNA4

KV1.4 [8] = molecular target: T9, KV1.4 (Homo sapiens, UniProt P22459, V556A); conditions: CHO
T9 construct: gene KCNA4

KV1.2 = molecular target: T10, KV1.2 (Homo sapiens, UniProt P16389)
T10 construct: gene KCNA2
T10 sequence (P16389 whole entry): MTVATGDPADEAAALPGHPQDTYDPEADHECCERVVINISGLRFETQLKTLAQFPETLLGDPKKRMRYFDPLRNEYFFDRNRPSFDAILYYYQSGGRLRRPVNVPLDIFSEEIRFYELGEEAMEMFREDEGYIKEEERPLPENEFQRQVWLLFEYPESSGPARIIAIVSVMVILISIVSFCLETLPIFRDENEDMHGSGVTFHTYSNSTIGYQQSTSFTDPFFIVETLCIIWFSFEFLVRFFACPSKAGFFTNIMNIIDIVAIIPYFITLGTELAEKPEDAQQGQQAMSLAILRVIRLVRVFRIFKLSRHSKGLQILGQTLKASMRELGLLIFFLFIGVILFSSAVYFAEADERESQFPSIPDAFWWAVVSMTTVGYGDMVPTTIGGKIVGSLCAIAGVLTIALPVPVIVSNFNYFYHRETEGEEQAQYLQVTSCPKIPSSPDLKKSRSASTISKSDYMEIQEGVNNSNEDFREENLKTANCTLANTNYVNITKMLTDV

T6 sequence (P22459 whole entry T551A): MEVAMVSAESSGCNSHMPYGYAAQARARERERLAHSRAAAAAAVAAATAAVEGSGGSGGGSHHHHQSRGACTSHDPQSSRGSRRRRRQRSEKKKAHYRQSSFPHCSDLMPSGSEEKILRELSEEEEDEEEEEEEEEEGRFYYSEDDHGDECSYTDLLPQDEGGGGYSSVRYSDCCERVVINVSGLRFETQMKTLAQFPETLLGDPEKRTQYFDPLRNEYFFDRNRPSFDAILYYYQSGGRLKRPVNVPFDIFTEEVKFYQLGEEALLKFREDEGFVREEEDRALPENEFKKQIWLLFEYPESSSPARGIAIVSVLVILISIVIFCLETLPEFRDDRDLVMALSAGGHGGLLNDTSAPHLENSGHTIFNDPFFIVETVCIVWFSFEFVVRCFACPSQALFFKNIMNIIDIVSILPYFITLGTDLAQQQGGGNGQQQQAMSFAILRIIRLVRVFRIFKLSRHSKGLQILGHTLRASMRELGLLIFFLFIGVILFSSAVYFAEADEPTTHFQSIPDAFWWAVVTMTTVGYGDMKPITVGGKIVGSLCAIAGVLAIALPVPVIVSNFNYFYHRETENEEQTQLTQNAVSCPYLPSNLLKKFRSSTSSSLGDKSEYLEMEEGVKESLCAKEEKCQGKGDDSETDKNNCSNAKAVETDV
T5 sequence (P22459 whole entry): as the sequence (P22459 whole entry T551A) above, with A551T counted along it
T1 sequence (P22459 62-653, stated change not applied): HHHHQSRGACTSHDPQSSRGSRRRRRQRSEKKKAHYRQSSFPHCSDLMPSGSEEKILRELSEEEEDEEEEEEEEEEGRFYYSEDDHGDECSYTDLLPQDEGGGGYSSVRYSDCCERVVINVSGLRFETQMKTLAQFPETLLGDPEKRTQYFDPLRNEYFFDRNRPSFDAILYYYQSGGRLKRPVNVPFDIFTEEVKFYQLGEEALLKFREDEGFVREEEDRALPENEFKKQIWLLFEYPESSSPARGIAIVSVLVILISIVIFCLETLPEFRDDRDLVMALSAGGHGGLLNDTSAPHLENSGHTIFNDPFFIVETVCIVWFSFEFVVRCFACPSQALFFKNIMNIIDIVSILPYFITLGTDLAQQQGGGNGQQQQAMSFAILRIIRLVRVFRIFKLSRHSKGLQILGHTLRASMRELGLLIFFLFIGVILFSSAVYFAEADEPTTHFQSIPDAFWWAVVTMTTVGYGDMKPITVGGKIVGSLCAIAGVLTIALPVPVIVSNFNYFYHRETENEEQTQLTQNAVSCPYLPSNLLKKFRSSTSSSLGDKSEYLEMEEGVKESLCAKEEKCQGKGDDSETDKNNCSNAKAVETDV
T9 sequence (P22459 whole entry V556A): as the sequence (P22459 whole entry T551A) above, with A551T, V556A counted along it
T8 sequence (P22459 whole entry V558A): as the sequence (P22459 whole entry T551A) above, with A551T, V558A counted along it
T7 sequence (P22459 whole entry A553V): as the sequence (P22459 whole entry T551A) above, with A551T, A553V counted along it
T4 sequence (P22001 whole entry): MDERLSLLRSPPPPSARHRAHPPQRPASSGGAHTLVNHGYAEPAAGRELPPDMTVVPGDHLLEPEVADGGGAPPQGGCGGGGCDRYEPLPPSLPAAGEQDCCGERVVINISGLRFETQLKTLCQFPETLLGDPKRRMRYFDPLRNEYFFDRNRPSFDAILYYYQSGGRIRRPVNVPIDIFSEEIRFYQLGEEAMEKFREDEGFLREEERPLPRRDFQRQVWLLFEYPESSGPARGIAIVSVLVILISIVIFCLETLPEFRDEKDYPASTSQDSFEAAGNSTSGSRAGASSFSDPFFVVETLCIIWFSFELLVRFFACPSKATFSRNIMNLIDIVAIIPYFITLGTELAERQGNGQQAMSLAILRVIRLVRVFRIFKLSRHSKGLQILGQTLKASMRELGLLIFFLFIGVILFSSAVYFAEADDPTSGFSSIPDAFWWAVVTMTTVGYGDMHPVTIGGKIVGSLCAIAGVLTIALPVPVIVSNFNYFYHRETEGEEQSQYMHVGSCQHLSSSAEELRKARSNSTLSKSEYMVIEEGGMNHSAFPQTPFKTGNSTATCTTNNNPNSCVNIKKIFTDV
T2 sequence (P22459 whole entry L554A): as the sequence (P22459 whole entry T551A) above, with A551T, L554A counted along it
T3 sequence (P22459 whole entry V549A): as the sequence (P22459 whole entry T551A) above, with V549A, A551T counted along it

NCCOB(c1ccccc1)c1ccccc1 [2-APB]
IC50 (KV1.4 [1]): 310 µM
inhibition at 100 µM (KV1.4 [2]): 32.9%
inhibition at 100 µM (KV1.4 [3]): 44.1%
IC50 (KV1.3): 455 µM
IC50 (KV1.4 [4]): 67.3 µM
inhibition at 100 µM (KV1.4 [5]): 37.8%
inhibition at 100 µM (KV1.4 [6]): 18.4%
inhibition at 100 µM (KV1.4 [7]): 57.3%
inhibition at 100 µM (KV1.4 [8]): 60.8%
IC50 (KV1.2): 310 µM
